Measurements as given in patent publication US9770023B2, “Active compound combinations comprising phenylamidine compounds and further fungicides” (BAYER CROPSCIENCE AKTIENGESELLSCHAFT, priority 2014, dated 2017).

Columns and labels:
Alternaria solani = assay: in vivo preventive test on Alternaria test (tomatoes)
Protocol: [table] To produce a suitable preparation of active compound, 1 part by weight of active compound is mixed with the stated amounts of solvent and emulsifier, and the concentrate is diluted with water to the desired concentration. To test for preventive activity, young plants are sprayed with the preparation of active compound at the stated rate of application. After the spray coating has dried on, the plants are inoculated with an aqueous spore suspension of Alternaria solani. The plants are then placed in an incubation cabinet at approximately 20° C. and a relative atmospheric humidity of 100%. The test is evaluated 3 days after the inoculation. 0% means an efficacy which corresponds to that of the untreated control while an efficacy of 100% means that no disease is observed.

[1] = test system: Blumeria graminis f.sp. hordei; assay: in vivo preventive Blumeria test (barley)
Protocol: [table] To produce a suitable preparation of active compound, 1 part by weight of active compound or active compound combination is mixed with the stated amounts of solvent and emulsifier, and the concentrate is diluted with water to the desired concentration. To test for preventive activity, young plants are sprayed with the preparation of active compound or active compound combination at the stated rate of application. After the spray coating has been dried, the plants are dusted with spores of Blumeria graminis f.sp. hordei. The plants are placed in the greenhouse at a temperature of approximately 18° C. and a relative atmospheric humidity of approximately 80% to promote the development of mildew pustules. The test is evaluated 7 days after the inoculation. 0% means an efficacy which corresponds to that of the untreated control, while an efficacy of 100% means that no disease is observed.

Leptosphaeria nodorum = assay: in vivo preventive Leptosphaeria nodorum test (wheat); conditions: Table C1, 8 days after inoculation, 80 ppm a.i.
Protocol: (§1) [table] To produce a suitable preparation of active compound, 1 part by weight of active compound or active compound combination is mixed with the stated amounts of solvent and emulsifier, and the concentrate is diluted with water to the desired concentration. To test for preventive activity, young plants are sprayed with the preparation of active compound or active compound combination at the stated rate of application. After the spray coating has been dried, the plants are sprayed with a spore suspension of Leptosphaeria nodorum. The plants remain for 48 hours in an incubation cabinet at approximately 20° C. and a relative atmospheric humidity of approximately 100%. The plants are placed in the greenhouse at a temperature of approximately 25° C. and a relative atmospheric humidity of approximately 80%. The test is evaluated 8 days after the inoculation. 0% means an efficacy which corresponds to that of the untreated control, while an efficacy of 100% means that no disease is observed.

Phakopsora pachyrhizi = assay: in vivo preventive test on Phakopsora test (soybeans)
Protocol: To produce a suitable preparation of active compound, 1 part by weight of active compound is mixed with the stated amounts of solvent and emulsifier, and the concentrate is diluted with water to the desired concentration. To test for preventive activity, young plants are sprayed with the preparation of active compound at the stated rate of application. After the spray coating has dried on, the plants are inoculated with an aqueous spore suspension of the causal agent of soybean rust (Phakopsora pachyrhizi) and stay for 24 h without light in an incubation cabinet at approximately 24° C. and a relative atmospheric humidity of 95%. The plants remain in the incubation cabinet at approximately 24° C. and a relative atmospheric humidity of approximately 80% and a day/night interval of 12 h.
The test is evaluated 7 days after the inoculation. 0% means an efficacy which corresponds to that of the untreated control, while an efficacy of 100% means that no disease is observed.

Puccinia triticina = assay: in vivo preventive Puccinia triticina test (wheat); conditions: Table E1, 8 days after inoculation, 40 ppm a.i.
Protocol: To produce a suitable preparation of active compound, 1 part by weight of active compound or active compound combination is mixed with the stated amounts of solvent and emulsifier, and the concentrate is diluted with water to the desired concentration.
To test for preventive activity, young plants are sprayed with the preparation of active compound or active compound combination at the stated rate of application. After the spray coating has been dried, the plants are sprayed with a spore suspension of Puccinia triticina. The plants remain for 48 hours in an incubation cabinet at approximately 20° C. and a relative atmospheric humidity of approximately 100%. The plants are placed in the greenhouse at a temperature of approximately 20° C. and a relative atmospheric humidity of approximately 80%.
The test is evaluated 8 days after the inoculation. 0% means an efficacy which corresponds to that of the untreated control, while an efficacy of 100% means that no disease is observed.

Pyrenophora teres = assay: in vivo preventive Pyrenophora teres test (barley); conditions: Table F1, 8 days after inoculation, 80 ppm a.i.
Protocol: as §1, with “Pyrenophora teres.” for “Leptosphaeria nodorum.”, “20°” for “25°”

Septoria tritici = assay: in vivo preventive Septoria tritici test (wheat)
Protocol: as §1, with “suspension of Septoria tritici. The plants” for “suspension of Leptosphaeria nodorum. The plants”, “of approximately 100% and afterwards for 60 hours at approximately 15° C. in a translucent incubation cabinet at a relative atmospheric humidity of approximately 100%. The” for “of approximately 100%. The”, “of approximately 15° C. and” for “of approximately 25° C. and”, “is evaluated 21 days after” for “is evaluated 8 days after”

CCN(C)/C=N/c1cc(C)c(Oc2ccccc2)cc1C [(I-d), N′-(2,5-dimethyl-4-phenoxyphenyl)-N-ethyl-N-methylimidoformamide]
Efficacy in % found (Alternaria solani; Table A1, 3 days after inoculation, 0.5 ppm a.i.): 8%
Efficacy in % found (Alternaria solani; Table A1, 3 days after inoculation, 1 ppm a.i.): 15%
Efficacy in % found (Alternaria solani; Table A2, 3 days after inoculation, 0.1 ppm a.i.): 0%
Efficacy in % found (Alternaria solani; Table A2, 3 days after inoculation, 0.2 ppm a.i.): 0%
Efficacy in % found ([1]; Table B1, 7 days after inoculation, 40 ppm a.i.): 33%
Efficacy in % found ([1]; Table B2, 7 days after inoculation, 10 ppm a.i.): 0%
Efficacy in % found ([1]; Table B2, 7 days after inoculation, 20 ppm a.i.): 0%
Efficacy in % found ([1]; Table B2, 7 days after inoculation, 40 ppm a.i.): 0%
Efficacy in % found ([1]; Table B2, 7 days after inoculation, 80 ppm a.i.): 22%
Efficacy in % found (Leptosphaeria nodorum): 29%
Efficacy in % found (Phakopsora pachyrhizi; Table D1, 7 days after inoculation, 0.05 ppm a.i.): 0%
Efficacy in % found (Phakopsora pachyrhizi; Table D1, 7 days after inoculation, 0.1 ppm a.i.): 23%
Efficacy in % found (Phakopsora pachyrhizi; Table D1, 7 days after inoculation, 0.2 ppm a.i.): 86%
Efficacy in % found (Phakopsora pachyrhizi; Table D2, 7 days after inoculation, 0.05 ppm a.i.): 0%
Efficacy in % found (Phakopsora pachyrhizi; Table D2, 7 days after inoculation, 0.1 ppm a.i.): 0%
Efficacy in % found (Phakopsora pachyrhizi; Table D2, 7 days after inoculation, 0.2 ppm a.i.): 23%
Efficacy in % found (Phakopsora pachyrhizi; Table D3, 7 days after inoculation, 0.05 ppm a.i.): 0%
Efficacy in % found (Phakopsora pachyrhizi; Table D3, 7 days after inoculation, 0.1 ppm a.i.): 0%
Efficacy in % found (Puccinia triticina): 57%
Efficacy in % found (Pyrenophora teres): 29%
Efficacy in % found (Septoria tritici; Table G1, 21 days after inoculation, 20 ppm a.i.): 14%
Efficacy in % found (Septoria tritici; Table G1, 21 days after inoculation, 40 ppm a.i.): 14%
Efficacy in % found (Septoria tritici; Table G2, 21 days after inoculation, 40 ppm a.i.): 0%
Efficacy in % found (Septoria tritici; Table G2, 21 days after inoculation, 80 ppm a.i.): 0%
